Source: patent US9229013B2, “Vasoactive hormone-based stratification of patients suffering from diseases related to endothelial function/dysfunction” (B.R.A.H.M.S GMBH, priority 2009, dated 2016)
Marks after values point to notes of the source that are not given here.

Assays:
Assay type in all cases: in vivo, human
[1] = test system: patients having suffered a myocardial infarction; assay: LAMP study (Outcome Death): hazard ratio medication vs no medication, stratified by biomarker quintile; conditions: for HR Medicament in Marker-Quantile 1 / HR Medicament in Marker-Quantile 2-4 / HR Medicament in Marker-Quantile 5 / HR Medicament (overall patient group): LAMP, Outcome Death
Description: (§1) Suitable threshold levels for the stratification of subjects into different groups (categories) have to be determined for each particular combination of vasoactive hormone or fragments thereof or precursors or fragments thereof, medication and disease. This can e.g. be done by grouping a reference population of patients according to their level of vasoactive hormone into certain quantiles, e.g. tertiles, quartiles, quintiles or even according to suitable percentiles. […] A HR around 1 (e.g. +/−0.1) indicates no elevated risk but also no benefit from medication for the particular group of patients.
(§2) FIGS. 14 to 21 illustrate the survival rate for patients suffering from myocardial infarction from the “Leicester Acute Myocardial Infarction Peptide Study” (“LAMP”). FIGS. 22 to 34 illustrate the rate of major cardiac events for patients suffering from acute myocardial infarction from “LAMP-Study”.
Acute myocardial infarction was subcategorized into ST-segment elevation myocardial infarction (STEMI) or non-ST-segment myocardial infarction (NSTEMI).
Blood samples were drawn on 1 occasion 3 to 5 days after the onset of chest pain. After 15 min bed rest, 20 ml blood was collected into tubes containing ethylendiaminetetraacetic acid (EDTA) and aprotinin. All plasma samples were stored at −70° C. until assayed in a blinded fashion in a single batch.
(§3) Survival rates, i.e. the proportion of patients surviving at a given time after entry into the studies, are plotted in the appended figures over time for different combinations of a particular vasoactive hormone with a particular medication. The patients have been stratified into quintiles according to their respective hormone levels. […] For some cases, two or more quintiles have been pooled were appropriate. Hazard ratios (HR) have been calculated for various combinations of particular vasoactive hormones with particular medications. HR have also been calculated for particular quintiles and/or pooled quintiles and compared to overall HR for each combination.

[2] = test system: patients having suffered a myocardial infarction; assay: LAMP study (Outcome MACE): hazard ratio medication vs no medication, stratified by biomarker quintile
Description: as §1, with “patients. By comparison of the HR between certain quantiles of patients with each other and with the HR of the overall population of patients, it is possible to identify those quantiles of patients who have an elevated risk and those who benefit from medication and thereby stratify subjects according to the present invention.” for “patients.”
as §2
The study involved 983 consecutive patients with acute myocardial infarction (AMI) admitted to the Coronary Care Unit of Leicester Royal Infirmary. […] Acute myocardial infarction was subcategorized into ST-segment elevation myocardial infarction (STEMI) or non-ST-segment myocardial infarction (NSTEMI).
Blood samples were drawn on 1 occasion 3 to 5 days after the onset of chest pain. After 15 min bed rest, 20 ml blood was collected into tubes containing ethylendiaminetetraacetic acid (EDTA) and aprotinin. All plasma samples were stored at −70° C. until assayed in a blinded fashion in a single batch. In a subgroup of 132 patients from the original 983-patient cohort, blood sampling was performed daily for 5 days from admission to discharge.
as §3

[3] = test system: patients having suffered from ischemic or haemorrhagic stroke or TIA; assay: COSMOS study: survival (deaths), hazard ratio medication vs no medication, stratified by biomarker quintile; conditions: for HR Medicament Marker-Quintile 5 / HR Medicament Marker-Quintile 1 / HR Medicament Marker-Quintile 2-4 / HR Medicament (overall patient group): COSMOS
Description: as §1, with “patients. By comparison of the HR between certain quantiles of patients with each other and with the HR of the overall population of patients, it is possible to identify those quantiles of patients who have an elevated risk and those who benefit from medication and thereby stratify subjects according to the present invention.” for “patients.”
FIGS. 9 to 13 illustrate the survival rate for patients suffering from ischemic stroke, hemorrhagic stroke or transient ischemic attack from the “Copeptin to guide disease severity and Management, Osmostatus and Stress” (“COSMOS”).
The study was set at the emergency and neurological and neurosurgical clinic of the University Hospital of Basel. All consecutive patients who are admitted to the emergency department with an ischemic or hemorrhagic stroke or transient ischemic attack (TIA) according to the World Health Organization criteria with symptom onset within the last 3 days were included into the study. Patients without an informed consent were excluded.
Step 5. In patients with ischemic stroke a telephone follow-up regarding morbidity and mortality (as assessed by the Barthel Index and Ranking Scale) will be obtained after 3 months. An unfavorable outcome will be defined as a Barthel index <85 or modified Ranking scale of 3 to 6. II) Post-Myocardial Infarction (MI) Patients (Leicester Acute Myocardial Infarction Peptide Study (“LAMP”)) Study Population:
as §3
Table 2 lists the results for the patients from the COSMOS study (patients having suffered from ischemic or haemorrhagic stroke or TIA).

[4] = COSMOS study, summary of Table 2

O=[N+]([O-])O [Nitrate]
deaths with medication ([1]; FIG. 16A, marker CT-proAVP, overall population, n=494 with medication): 23 | deaths with medication ([1]; FIG. 16B, 1st CT-proAVP quintile (0.31-4.6 pmol/L), n=69 with medication): 2 | deaths with medication ([1]; FIG. 16C, 2nd to 4th CT-proAVP quintiles (4.6-42.1 pmol/L), n=318 with medication): 11 | deaths with medication ([1]; FIG. 16D, 5th CT-proAVP quintile (42.1-1040 pmol/L), n=107 with medication): 10 | HR Medicament in Marker-Quantile 1 ([1]; CT-ET-1 3.7-65.4 pmol/L): 1 | HR Medicament in Marker-Quantile 2-4 ([1]; CT-ET-1 65.4-136 pmol/L): 1 | HR Medicament in Marker-Quantile 5 ([1]; CT-ET-1 136-468 pmol/L): 0.3 | HR Medicament in Marker-Quantile 1 ([1]; CT-proAVP 0.31-4.6 pmol/L): 4.8 | HR Medicament in Marker-Quantile 2-4 ([1]; CT-proAVP 4.6-42.1 pmol/L): 0.7 | HR Medicament in Marker-Quantile 5 ([1]; CT-proAVP 42.1-1040 pmol/L): 0.3 | HR Medicament in Marker-Quantile 1 ([1]; MR-proANP 14.5-59.6 pmol/L): >100 | HR Medicament in Marker-Quantile 2-4 ([1]; MR-proANP 59.6-283 pmol/L): 0.9 | HR Medicament in Marker-Quantile 5 ([1]; MR-proANP 283-1650 pmol/L): 0.3 | HR Medicament in Marker-Quantile 1 ([1]; NT-proBNP 0.12-184 pg/mL): 1.9 | HR Medicament in Marker-Quantile 2-4 ([1]; NT-proBNP 184-2700 pg/mL): 0.6 | HR Medicament in Marker-Quantile 5 ([1]; NT-proBNP 2700-34100 pg/mL): 0.5 | HR Medicament (overall patient group) ([1]; biomarker CT-ET-1): 0.6 | HR Medicament (overall patient group) ([1]; biomarker CT-proAVP): 0.5 | HR Medicament (overall patient group) ([1]; biomarker MR-proANP): 0.5 | HR Medicament (overall patient group) ([1]; biomarker NT-proBNP): 0.7 | HR Medicament in Marker-Quantile 1 ([2]; CT-proAVP 0.3-3.6 pmol/L): 2.8 | HR Medicament in Marker-Quantile 2-4 ([2]; CT-proAVP 3.6-18.7 pmol/L): 1.2 | HR Medicament in Marker-Quantile 5 ([2]; CT-proAVP 18.7-441 pmol/L): 0.6 | HR Medicament in Marker-Quantile 1 ([2]; CT-proET-1 4.6-56.6 pmol/L): 2.4 | HR Medicament in Marker-Quantile 2-4 ([2]; CT-proET-1 56.6-118 pmol/L): 0.9 | HR Medicament in Marker-Quantile 5 ([2]; CT-proET-1 118-671 pmol/L): 0.9 | HR Medicament in Marker-Quantile 1 ([2]; MR-proADM 0.09-0.53 nmol/L): 2.4 | HR Medicament in Marker-Quantile 2-4 ([2]; MR-proADM 0.53-1.16 nmol/L): 0.9 | HR Medicament in Marker-Quantile 5 ([2]; MR-proADM 1.16-6.95 nmol/L): 1 | HR Medicament in Marker-Quantile 1 ([2]; MR-proANP 4.9-65 pmol/L): 3.8 | HR Medicament in Marker-Quantile 2-4 ([2]; MR-proANP 65-264 pmol/L): 1 | HR Medicament in Marker-Quantile 5 ([2]; MR-proANP 264-1630 pmol/L): 0.8 | HR Medicament in Marker-Quantile 1 ([2]; NT-proBNP 0.12-184 pg/mL): 2.4 | HR Medicament in Marker-Quantile 2-4 ([2]; NT-proBNP 184-2700 pg/mL): 0.8 | HR Medicament in Marker-Quantile 5 ([2]; NT-proBNP 2700-34100 pg/mL): 0.9 | HR Medicament (overall patient group) ([2]; biomarker CT-proAVP): 1.1 | HR Medicament (overall patient group) ([2]; biomarker CT-proET-1): 1.1 | HR Medicament (overall patient group) ([2]; biomarker MR-proADM): 1.1 | HR Medicament (overall patient group) ([2]; biomarker MR-proANP): 1.1 | HR Medicament (overall patient group) ([2]; biomarker NT-proBNP): 1

CC(=O)Oc1ccccc1C(=O)O [Acetylsalicylic acid]
effect of administration at high (higher) levels of vasoactive hormones [3, 4]: unfavourable effect | effect of administration at low (lower) levels of vasoactive hormones [3, 4]: positive effect | HR Medicament Marker-Quintile 5 ([3]; CT-proAVP 23.5-499 pmol/L): 2.6 | HR Medicament Marker-Quintile 1 ([3]; CT-proET-1 4.5-55.5 pmol/L): 0.5 | HR Medicament Marker-Quintile 2-4 ([3]; CT-proET-1 55.5-93.1 pmol/L): 1.5 | HR Medicament Marker-Quintile 5 ([3]; CT-proET-1 93.1-368 pmol/L): 2.5 | HR Medicament Marker-Quintile 1 ([3]; MR-proADM 0.05-0.47 nmol/L): 0.6 | HR Medicament Marker-Quintile 2-4 ([3]; MR-proADM 0.47-0.91 nmol/L): 0.7 | HR Medicament Marker-Quintile 5 ([3]; MR-proADM 0.91-5.49 nmol/L): 2.4 | HR Medicament Marker-Quintile 1 ([3]; MR-proANP 20.8-71.6 pmol/L): <0.1 | HR Medicament Marker-Quintile 2-4 ([3]; MR-proANP 71.6-240 pmol/L): 1.7 | HR Medicament Marker-Quintile 5 ([3]; MR-proANP 240-1560 pmol/L): 2.3 | HR Medicament Marker-Quintile 2-4 ([3]; Quintiles 1 to 4 are pooled, CT-proAVP 0.69-23.5 pmol/L): 0.8* | HR Medicament (overall patient group) ([3]; biomarker CT-proAVP): 1.3 | HR Medicament (overall patient group) ([3]; biomarker CT-proET-1): 1.4 | HR Medicament (overall patient group) ([3]; biomarker MR-proADM): 1 | HR Medicament (overall patient group) ([3]; biomarker MR-proANP): 1.3 | deaths with medication ([3]; FIG. 12A, marker MR-proANP, overall population, n=209 with medication): 20 | deaths with medication ([3]; FIG. 12B, 1st MR-proANP quintile (22.3-69.5 pmol/L), n=51 with medication): 0 | deaths with medication ([3]; FIG. 12C, 2nd to 4th MR-proANP quintiles (69.5-250 pmol/L), n=124 with medication): 6 | deaths with medication ([3]; FIG. 12D, 5th MR-proANP quintile (250-1540 pmol/L), n=34 with medication): 14 | HR Medicament in Marker-Quantile 1 ([1]; CT-proAVP 0.31-4.6 pmol/L): >100 | HR Medicament in Marker-Quantile 2-4 ([1]; CT-proAVP 4.6-42.1 pmol/L): 0.4 | HR Medicament in Marker-Quantile 5 ([1]; CT-proAVP 42.1-1040 pmol/L): 0.3 | HR Medicament in Marker-Quantile 1 ([1]; MR-proADM 0.035-0.47 nmol/L): >100 | HR Medicament in Marker-Quantile 2-4 ([1]; MR-proADM 0.47-1.18 nmol/L): 0.5 | HR Medicament in Marker-Quantile 5 ([1]; MR-proADM 1.18-6.75 nmol/L): 0.3 | HR Medicament in Marker-Quantile 1 ([1]; MR-proANP 14.5-59.6 pmol/L): >100 | HR Medicament in Marker-Quantile 2-4 ([1]; MR-proANP 59.6-283 pmol/L): 0.4 | HR Medicament in Marker-Quantile 5 ([1]; MR-proANP 283-1650 pmol/L): 0.4 | HR Medicament in Marker-Quantile 1 ([1]; NT-proBNP 0.12-184 pg/mL): >100 | HR Medicament in Marker-Quantile 2-4 ([1]; NT-proBNP 184-2700 pg/mL): 0.3 | HR Medicament in Marker-Quantile 5 ([1]; NT-proBNP 2700-34100 pg/mL): 0.5 | HR Medicament (overall patient group) ([1]; biomarker CT-proAVP): 0.3 | HR Medicament (overall patient group) ([1]; biomarker MR-proADM): 0.3 | HR Medicament (overall patient group) ([1]; biomarker MR-proANP): 0.3 | HR Medicament (overall patient group) ([1]; biomarker NT-proBNP): 0.3
